Reference: US12371454B2, “Cyclic peptide compound having Kras inhibitory action” (priority 2019, dated 2025)
Starred links: 1 amine or outer side, 2 acyl side, 3 side chain; linkers in the order of their positions; H or OH if unused. Positions of bridges follow the written chain, without caps; N, C: chain ends. Non-standard residues stand in square brackets, D forms with d. Residues, ends and D or L forms follow the SMILES beside them. *: point of attachment. hPhe(3-Cl-4-CF3) = N[C@@H](CCc1ccc(C(F)(F)F)c(Cl)c1)C(=O)O; NMePhe(4-CF3) = CN[C@@H](Cc1ccc(C(F)(F)F)cc1)C(=O)O; 3Oxa8azabicyclo(3.2.1)octane = C1CC2COCC1N2*; NMePhe(3-Me) = CN[C@@H](Cc1cccc(C)c1)C(=O)O; NMePhe(4-Me) = CN[C@@H](Cc1ccc(C)cc1)C(=O)O; NMePhe(4-I) = CN[C@@H](Cc1ccc(I)cc1)C(=O)O; NMeMet(O2) = CN[C@@H](CCS(C)(=O)=O)C(=O)O; NMedβ3hAla = C[C@H](CC(=O)[*:2])N(C)[*:1]; NMeNva(5,5-F2) = CN[C@@H](CCC(F)F)C(=O)O; NMeGly(cPent) = CN[C@H](C(=O)O)C1CCCC1; NMeGly(cBu) = CN[C@H](C(=O)O)C1CCC1; NMeY = CN[C@@H](Cc1ccc(O)cc1)C(=O)O; NMeCha = CN[C@@H](CC1CCCCC1)C(=O)O; NMeChg = CN[C@H](C(=O)O)C1CCCCC1; NMeI = CC[C@H](C)[C@H](NC)C(=O)O; Gly(cBu) = N[C@H](C(=O)O)C1CCC1; NMeD = CN[C@@H](CC(=O)O)C(=O)O; NMeHpra = C#CCC[C@H](NC)C(=O)O; NMeL = CN[C@@H](CC(C)C)C(=O)O; NMeV = CN[C@H](C(=O)O)C(C)C; NMeAbu = CC[C@H](NC)C(=O)O; NMeA = CN[C@@H](C)C(=O)O; Piperidide = C1CCN(*)CC1; Ac5c = NC1(C(=O)O)CCCC1; Aze = O=C(O)[C@@H]1CCN1; Sar = CNCC(=O)O

Experiments:
[1] = system: Human pancreatic cancer cell line AsPC-1; experiment: Measurement of AsPC-1 cell growth inhibition (AsPC-1 CGI); format: cell-based; details: 96 h
How it was run: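 AsPC-1 cells in 15% FBS RPMI-1640 were exposed to test compound for 96 hours at 37° C, with CellTiter-Glo as endpoint.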

[2] = biological target: T1, Kras and SOS1 (biotin-tagged human Kras loaded with GDP, His-tagged human SOS1) (Homo sapiens, UniProt P01116, G12D); experiment: Protein-protein interaction inhibition between Kras and SOS1 (KrasGl2D-SOS PPI) using AlphaScreen; format: binding; details: AlphaScreen; biotin-tagged human Kras loaded with GDP, His-tagged human SOS1; read-out: KRAS G12D-SOS PPI IC50
T1 construct: made in house; host or cells: E. coli (stated for Kras only)
T1 sequence (P01116 1-188 isoform P01116-2 G12D): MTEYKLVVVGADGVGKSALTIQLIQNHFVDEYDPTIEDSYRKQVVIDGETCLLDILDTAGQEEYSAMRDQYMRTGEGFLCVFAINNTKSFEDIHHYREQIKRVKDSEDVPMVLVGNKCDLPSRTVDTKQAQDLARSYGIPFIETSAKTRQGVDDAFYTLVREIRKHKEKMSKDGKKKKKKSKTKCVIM
How it was run: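 AlphaScreen format: Ni donor beads capture His-SOS1, streptavidin acceptor beads capture biotinylated Kras (E. coli-expressed, GDP-loaded post-purification). Excite 680 nm, read 520-620 nm.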

Row | SMILES | IC50 [1] [nM] | IC50 [2] [nM]
1 | CC[C@H](C)[C@@H]1NC(=O)[C@H](CCS(C)(=O)=O)N(C)C(=O)C[C@@H](C(=O)N2CCCCC2)N(C)C(=O)[C@H](C2CCCCC2)N(C)C(=O)C2(CCCC2)NC(=O)[C@@H]2CCCN2C(=O)[C@H](CCc2ccc(C(F)(F)F)c(Cl)c2)NC(=O)CN(C)C(=O)[C@H](CC2CCCCC2)N(C)C(=O)CN(C)C(=O)CN(C)C1=O [Compound 52] ([NMeMet(O2)]I[Sar][Sar][NMeCha][Sar][hPhe(3-Cl-4-CF3)]P[Ac5c][NMeChg][NMeD]-Piperidide; lactam N-11) | 100 to 500 | 0.66
2 | CC[C@H](C)[C@@H]1NC(=O)[C@H](CC(C)C)N(C)C(=O)C[C@@H](C(=O)N(C)C)N(C)C(=O)[C@H]([C@@H](C)CC)N(C)C(=O)C2(CCCC2)NC(=O)[C@H](Cc2cccc(C)c2)N(C)C(=O)[C@H](CCc2ccc(C(F)(F)F)c(Cl)c2)NC(=O)CN(C)C(=O)[C@H](Cc2ccc(C)cc2)N(C)C(=O)[C@@H]2CCN2C(=O)[C@H](C)N(C)C1=O [Compound 912] ([NMeL]I[NMeA][Aze][NMePhe(4-Me)][Sar][hPhe(3-Cl-4-CF3)][NMePhe(3-Me)][Ac5c][NMeI][NMeD]-NMe2; lactam N-11) | 50 to 100 | 12
3 | CC[C@H](C)[C@@H]1NC(=O)[C@H](C2CCC2)N(C)C(=O)C[C@@H](C(=O)N2CCCCC2)N(C)C(=O)[C@H](C(C)C)N(C)C(=O)C2(CCCC2)NC(=O)[C@@H]2CCCN2C(=O)[C@H](CCc2ccc(C(F)(F)F)c(Cl)c2)NC(=O)CN(C)C(=O)[C@H](CC2CCCCC2)N(C)C(=O)CN(C)C(=O)CN(C)C1=O [Compound 948] ([NMeGly(cBu)]I[Sar][Sar][NMeCha][Sar][hPhe(3-Cl-4-CF3)]P[Ac5c][NMeV][NMeD]-Piperidide; lactam N-11) | 50 to 100 | 3.1
4 | CC[C@H](C)[C@@H]1NC(=O)[C@H](CC(C)C)N(C)C(=O)C[C@@H](C(=O)N(C)C)N(C)C(=O)[C@H](C2CCCC2)N(C)C(=O)C2(CCCC2)NC(=O)[C@H](CCC(F)F)N(C)C(=O)[C@H](CCc2ccc(C(F)(F)F)c(Cl)c2)NC(=O)CN(C)C(=O)[C@H](CC2CCCCC2)N(C)C(=O)[C@@H]2CCN2C(=O)[C@H](C)N(C)C1=O [Compound 1907] ([NMeL]I[NMeA][Aze][NMeCha][Sar][hPhe(3-Cl-4-CF3)][NMeNva(5,5-F2)][Ac5c][NMeGly(cPent)][NMeD]-NMe2; lactam N-11) | 20 to 50 | 1.3
5 | CC[C@H](C)[C@@H]1NC(=O)[C@H](CC(C)C)N(C)C(=O)C[C@@H](C)N(C)C(=O)[C@H](C(C)C)N(C)C(=O)C2(CCCC2)NC(=O)[C@@H]2CCCN2C(=O)[C@H](CCc2ccc(C(F)(F)F)c(Cl)c2)NC(=O)CN(C)C(=O)[C@H](Cc2ccc(OC)cc2)N(C)C(=O)CN(C)C(=O)CN(C)C1=O [Compound 1551] (cyclo([Ac5c][NMeV][NMedβ3hAla][NMeL]I[Sar][Sar][NMeY](Me)[Sar][hPhe(3-Cl-4-CF3)]P)) | 50 to 100 | 4.9
6 | CC(C)C[C@H]1C(=O)N[C@@H](C2CCC2)C(=O)N(C)CC(=O)N(C)CC(=O)N(C)[C@@H](CC2CCCCC2)C(=O)N(C)CC(=O)N[C@@H](CCc2ccc(C(F)(F)F)c(Cl)c2)C(=O)N2CCC[C@H]2C(=O)NC2(CCCC2)C(=O)N(C)[C@@H](C2CCCCC2)C(=O)N(C)[C@H](C(=O)N2CCCCC2)CC(=O)N1C [Compound 411] ([NMeL][Gly(cBu)][Sar][Sar][NMeCha][Sar][hPhe(3-Cl-4-CF3)]P[Ac5c][NMeChg][NMeD]-Piperidide; lactam N-11) | 50 to 100 | 0.62
7 | CC[C@H](C)[C@@H]1NC(=O)[C@H](C)N(C)C(=O)C[C@@H](C)N(C)C(=O)[C@H](C(C)C)N(C)C(=O)C2(CCCC2)NC(=O)[C@@H]2CCCN2C(=O)[C@H](CCc2ccc(C(F)(F)F)c(Cl)c2)NC(=O)CN(C)C(=O)[C@H](CC2CCCCC2)N(C)C(=O)CN(C)C(=O)CN(C)C1=O [Compound 714] (cyclo([Ac5c][NMeV][NMedβ3hAla][NMeA]I[Sar][Sar][NMeCha][Sar][hPhe(3-Cl-4-CF3)]P)) | 100 to 500 | 2.3
8 | CC[C@H](C)[C@@H]1NC(=O)[C@H](CC)N(C)C(=O)C[C@@H](C(=O)N2C3CCC2COC3)N(C)C(=O)[C@H](C2CCCCC2)N(C)C(=O)C2(CCCC2)NC(=O)[C@@H]2CCCN2C(=O)[C@H](CCc2ccc(C(F)(F)F)c(Cl)c2)NC(=O)CN(C)C(=O)[C@H](Cc2ccc(C(F)(F)F)cc2)N(C)C(=O)CN(C)C(=O)CN(C)C1=O [Compound 1993] ([NMeAbu]I[Sar][Sar][NMePhe(4-CF3)][Sar][hPhe(3-Cl-4-CF3)]P[Ac5c][NMeChg][NMeD]-{3Oxa8azabicyclo(3.2.1)octane}; lactam N-11) | 50 to 100 | 0.64
9 | C#CCC[C@H]1C(=O)N[C@@H]([C@@H](C)CC)C(=O)N(C)CC(=O)N(C)CC(=O)N(C)[C@@H](Cc2ccc(I)cc2)C(=O)N(C)CC(=O)N[C@@H](CCc2ccc(C(F)(F)F)c(Cl)c2)C(=O)N2CCC[C@H]2C(=O)NC2(CCCC2)C(=O)N(C)[C@@H](C2CCCCC2)C(=O)N(C)[C@H](C)CC(=O)N1C [Compound 110] (cyclo([Ac5c][NMeChg][NMedβ3hAla][NMeHpra]I[Sar][Sar][NMePhe(4-I)][Sar][hPhe(3-Cl-4-CF3)]P)) | 100 to 500 | 3.8
